Measurements from PMC3411647 (PLoS ONE, 2012).

Columns and labels:
[1] = biological target: T1, human histamine H3 receptor (Homo sapiens, UniProt Q9Y5N1); assay: Competitive/saturation binding with [3H]N-α-methylhistamine, H3R/HEK-293 cell membranes
T1 construct: expressed in transfected cells
Description: Figure 4 Competition binding experiments with [^3H]-N-α-methylhistamine. […] The presented data are the means ±SE of values from a single experiment performed in duplicate and are representative of three to six separate experiments.
HEK-293 cells stably expressing H3R were harvested and resuspended in ice-cold 50 mM Tris-HCl (pH 7.4) containing a complete protease inhibitor cocktail tablet and mixed by inverting. The cell pellet was homogenized with a Polytron PT 1200 set at 4000 rpm and centrifuged at 1,000 g for 5 min. The supernatant was then centrifuged twice at 50,000 g for 30 min at 4°C. Finally, the resulting pellet was gently suspended in 50 mM Tris-HCl (pH 7.4) buffer and the membrane concentration was determined using Bio-Rad protein assays.
The membranes (50 µg of protein) were incubated with [^3H] N-α-methylhistamine at various concentrations (from 0.03 nM to 50 nM) for saturation binding assays. For competitive binding assays, the membranes (50 µg of protein) were incubated with 10 nM [^3H] N-α-methylhistamine for recombinant hH3R or 2nM [^3H] N-α-methylhistamine for rat brain H3R in the presence of various compound concentrations in the buffer (50 mM Tris–HCl, pH 7.4). […] Following three washes, the membrane-bound radioactivity was measured on a Topcount (PerkinElmer) at 20°C. […] IC50 values were converted to Ki values using the Cheng-Prusoff equation. Each experiment was performed in duplicate and repeated three to six times. All data were analyzed by nonline arregression using GraphPad Prism version 4.0 software.

[2] = biological target: T2, hH1R (Homo sapiens, UniProt P35367); assay: Intracellular Ca2+ flux assay in HEK-293 cells stably expressing hH1R; assay type: cell-based
T2 construct: expressed in transfected cells
T2 sequence (P35367 whole entry): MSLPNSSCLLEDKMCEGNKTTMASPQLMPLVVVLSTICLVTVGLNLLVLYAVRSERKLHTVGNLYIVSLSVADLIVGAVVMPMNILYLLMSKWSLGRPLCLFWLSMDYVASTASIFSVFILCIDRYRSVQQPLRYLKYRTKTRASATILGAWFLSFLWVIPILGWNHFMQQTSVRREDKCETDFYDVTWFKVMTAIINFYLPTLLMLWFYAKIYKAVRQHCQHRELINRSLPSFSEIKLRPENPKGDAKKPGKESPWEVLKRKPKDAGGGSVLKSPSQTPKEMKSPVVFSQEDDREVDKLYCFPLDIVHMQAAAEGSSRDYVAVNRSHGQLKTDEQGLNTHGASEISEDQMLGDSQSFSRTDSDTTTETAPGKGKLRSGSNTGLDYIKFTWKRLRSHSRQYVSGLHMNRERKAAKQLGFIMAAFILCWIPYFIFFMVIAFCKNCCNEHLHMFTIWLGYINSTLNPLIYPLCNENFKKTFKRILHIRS
Excerpt: Figure 3 The selectivity of ZEL-H16 for hH3R in intracellular Ca^2+ flux assay and CRE-luciferase transcription assay. A–C, Intracellular Ca^2+ flux or CRE-driven luciferase activity induced by ZEL-H16 in HEK-293 cells stably expressing hH1R (A), hH2R (B), or hH4R (C). […] The presented data points are the mean ±SE of triplicate values from a single experiment and are representative of three separate experiments. Statistical analysis between ZEL-H16 added or not added for each concentration point in the kinetic graph was done using a t-test (PRISM software). G, Relative expression of hH1R, hH2R, hH3R and hH4R on transfected HEK-293 cells by ELISA quantification for Flag-tagged cell-surface receptors (***p<0.001, compared to non-transfected HEK 293 cells).
The stably H1R-expressing HEK-293 cells were harvested with Cell Stripper (Mediatech, Herndon, VA), washed twice with phosphate-buffered saline (PBS), and resuspended in Hanks’ balanced salt solution (140 mM NaCl, 5 mM KCl, 10 mM HEPES, pH 7.4, 1 mM CaCl2, 1 mM MgCl2, 1 mg/ml glucose) containing 0.025% bovine serum albumin. […] Calcium flux was measured using excitation at 340 and 380 nm in a Infinite 200 PRO multifunctional microplate reader (Tecan Austria GmbH, Grödig, AT ) and [Ca^2+]i was measured using the 340/380 excitation ratio (R 340/380).

[3] = biological target: T3, H3R (Homo sapiens, UniProt Q9Y5N1); assay: H3R internalization, cell-surface ELISA in HEK-293 cells stably transfected with Flag-H3R; assay type: cell-based; settings: 100 µM, 45 min at 37°C
T3 construct: expressed in transfected cells
T3 sequence (Q9Y5N1 whole entry): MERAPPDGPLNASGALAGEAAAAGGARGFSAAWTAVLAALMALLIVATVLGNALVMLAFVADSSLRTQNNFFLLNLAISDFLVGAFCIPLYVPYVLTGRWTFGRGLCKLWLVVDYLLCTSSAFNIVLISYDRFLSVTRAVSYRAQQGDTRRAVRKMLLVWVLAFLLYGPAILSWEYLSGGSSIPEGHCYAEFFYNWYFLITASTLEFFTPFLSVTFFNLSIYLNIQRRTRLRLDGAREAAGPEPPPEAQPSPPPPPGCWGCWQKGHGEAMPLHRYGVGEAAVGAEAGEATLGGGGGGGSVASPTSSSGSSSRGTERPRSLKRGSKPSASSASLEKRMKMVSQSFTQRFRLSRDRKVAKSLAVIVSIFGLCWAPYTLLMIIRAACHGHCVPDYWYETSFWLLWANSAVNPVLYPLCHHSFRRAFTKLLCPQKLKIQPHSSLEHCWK
Description: ELISA data are expressed as the percentage of receptors detected on the surface of agonist-untreated cells expressing H3R. Error bars represent the SEM for four replicates.
The cell surface expression of H3R was quantitatively assessed by ELISA and performed as described previously. Briefly, HEK-293 cells stably transfected with the pCMV-H3R construct were seeded in 48-well dishes coated with poly-L-lysine. […] Medium was aspirated and the cells were washed once with Tris-buffered saline (TBS). […] Cells were then incubated for 1 h with an alkaline phosphatase-conjugated monoclonal antibody directed against the Flag epitope and diluted 1∶1,000. Cells were washed 3 times, and antibody binding was visualized by adding 0.25 mL of an alkaline phosphatase substrate (Bio-Rad). Development was stopped by adding 0.1 mL of the substrate to a 96-well microtiter plate containing 0.1 mL of 0.4 M NaOH.

[4] = biological target: T3, H3R; assay: ERK1/2 phosphorylation (Western blot) in HEK-293 cells stably expressing H3R; assay type: cell-based
Description: Figure 7 Phosphorylation of ERK1/2 induced by ZEL-H16 in H3R-expressing HEK-293 cells. […] Signals were quantified by densitometric image analysis and p-ERK was normalized to a loading control (ERK). […] Concentration -dependent phosphorylation signals were quantified by densitometric analysis and p-ERK levels were normalized to total ERK levels. […] C, The phosphorylation of ERK1/2 induced by ZEL-H16 could be entirely abolished by co-incubation with H3R antagonist thioperamide (***p<0.001). Data represent the mean ±SE of three independent experiments.
HEK-293 cells stably expressing human H3R were grown in a 6-well plate and were serum starved 2 h in serum-free culture medium prior to stimulation. Cells were stimulated with the indicated H3R ligands at the designated concentrations. Incubations were stopped at the indicated times by removing the stimulation medium by aspiration. The cells were washed in ice-cold PBS and subsequently lysed in 100 µl of lysis buffer [20 mM HEPES (pH 7.5), 10 mM EDTA, 150 mM NaCl, 1% Triton X-100, and one tablet of complete protease inhibitor (Roche, Indianapolis, IN) per 50 mL] at 4°C on a rocker for 30 min. The lysates were centrifuged and separated by sodium dodecyl sulfate-polyacrylamide (12%) gel electrophoresis (SDS-PAGE) and blotted onto polyvinylidene difluoride membranes. Membranes were blocked for 1 h at room temperature in TBST (10 mmol/L Tris, 150 mmol/L NaCl, 0.1% Tween-20, pH 8.0) buffer containing 5% (v/w) skim milk. Membranes were probed overnight with primary antibodies against p-ERK1/2 (1∶1,000; Cell Signaling, Danvers, MA) in TBST containing 5% (v/w) BSA, and then probed with horseradish peroxidase-labeled secondary antibody (1∶5,000) for 1 h at room temperature in TBST containing 5% (v/w) milk powder. Immunoreactivity was detected by ECL assays. The blots were stripped and reprobed using antibodies against total ERK1/2 (1∶2,000) (Cell Signaling, Danvers, MA) as a control.

T1 sequence (Q9Y5N1 whole entry): as above

Ki ([1]; 10 nM [3H]N-α-methylhistamine, H3R/HEK-293 membranes, read-out: Ki): 2.07 ± 0.8 nM
affinity for human H3R as compared to histamine ([1]; higher affinity than histamine): approximately 20 fold
loss in the expression of the receptors on the cell surface (internalization) [3]: 50%
EC50 ([4]; 10 nM to 100 µM, Western-blot densitometry): 1100 ± 100 nM
time of maximal ERK1/2 activation after stimulation ([4]; 1 µM): 2 min
Emax at 1 µM ([4]; HEK293, read-out: maximal activation of ERK1/2 relative to maximal activation induced by histamine, 1 µM): ~50%
Structure (SMILES): c1ccc2c(c1)c(CCCN1CCCCC1)cn2CCCN1CCCCC1 [ZEL-H16]
antagonist activity: influence on Ca2+ release stimulated by histamine ([2]; ZEL-H16 added to histamine): neither modulate the intracellular Ca^2+ release stimulated by histamine
agonist activity: intracellular Ca2+ release ([2]; ZEL-H16 alone, compared to histamine): did not induce similar intracellular Ca^2+ release
